The target of the assay is T1, GFRα1-RET (Homo sapiens, UniProt P56159).
T1 construct: expressed in transfected cells; host or cells: MG87 murine fibroblasts, stably transfected
T1 sequence (P56159 25-429 limits assumed): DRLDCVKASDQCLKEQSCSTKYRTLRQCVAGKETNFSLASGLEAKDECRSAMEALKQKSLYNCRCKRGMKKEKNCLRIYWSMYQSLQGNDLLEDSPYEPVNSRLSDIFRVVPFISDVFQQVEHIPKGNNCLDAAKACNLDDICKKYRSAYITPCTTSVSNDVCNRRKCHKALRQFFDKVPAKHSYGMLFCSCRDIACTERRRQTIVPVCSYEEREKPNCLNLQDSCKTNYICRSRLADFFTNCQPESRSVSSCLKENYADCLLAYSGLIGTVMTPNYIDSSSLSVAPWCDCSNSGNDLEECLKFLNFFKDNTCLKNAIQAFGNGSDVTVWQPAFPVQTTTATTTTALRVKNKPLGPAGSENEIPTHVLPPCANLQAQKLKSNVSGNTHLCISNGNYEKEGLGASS
The assay is described as follows: Elk1 reporter-gene (luciferase) assay in cells expressing GFRα1-RET. To be noted: MG87 murine fibroblasts stably transfected with PathDetect Elk-1, GFRα1 and RET, 6 concentrations, agonist/activator activity. The assay is classed as cell-based. The method, then:
For ECso determination, a dose-response test was performed using 6 concentrations of each tested compound. Dose-response curves were fitted using the sigmoidal dose-response (variable slope) analysis in GraphPad Prism program (Graph Pad Inc) and ECso of agonist/activator activity was calculated. Dose-response experiments were all performed in duplicate, two times independently.
As to `CN1CCc2cc(S(=O)(=O)N3CCC(c4ccccc4)CC3)cc(N3[C@@H]4CC[C@H]3CN(C(=O)c3ccc(F)cc3Cl)C4)c21` [compound 119, (2-chloro-4-fluoro-phenyl)-[(1S,5R)-8-[1-methyl-5-[(4-phenyl-1-piperidyl)sulfonyl]indolin-7-yl]-3,8-diazabicyclo[3.2.1]octan-3-yl]methanone], the EC50 was under 1000 nM.

For `CN1CCc2cc(S(=O)(=O)N3CCC(c4ccccc4)CC3)cc(N3[C@@H]4CC[C@H]3CN(C(=O)c3cc(F)c(F)cc3Cl)C4)c21` [compound 120, (2-chloro-4,5-difluoro-phenyl)-[(1S,5R)-8-[1-methyl-5-[(4-phenyl-1-piperidyl)sulfonyl]indolin-7-yl]-3,8-diazabicyclo[3.2.1]octan-3-yl]methanone], the EC50 is under 1000 nM. As to `CN(C)c1ccc(S(=O)(=O)N2CCC(c3ccccc3)CC2)cc1N1[C@@H]2CC[C@H]1CN(C(=O)c1ccc(F)cc1Cl)C2` [compound 121, (2-chloro-4-fluoro-phenyl)-[(1S,5R)-8-[2-(dimethylamino)-5-[(4-phenyl-1-piperidyl)sulfonyl]phenyl]-3,8-diazabicyclo[3.2.1]octan-3-yl]methanone], the EC50 is under 1000 nM.

On to `CN(C)c1ccc(S(=O)(=O)N2CCC(c3ccccc3)CC2)cc1N1[C@@H]2CC[C@H]1CN(C(=O)c1cc(F)c(F)cc1Cl)C2` [compound 122, (2-chloro-4,5-difluoro-phenyl)-[(1S,5R)-8-[2-(dimethylamino)-5-[(4-phenyl-1-piperidyl)sulfonyl]phenyl]-3,8-diazabicyclo[3.2.1]octan-3-yl]methanone], for which the EC50 is under 1000 nM. For `CNC1CN(c2ccc(S(=O)(=O)N3CCC(c4ccccc4)CC3)cc2N2[C@@H]3CC[C@H]2CN(C(=O)c2ccc(F)cc2Cl)C3)C1` [compound 123, (2-chloro-4-fluoro-phenyl)-[(1S,5R)-8-[2-[3-(methylamino)azetidin-1-yl]-5-[(4-phenyl-1-piperidyl)sulfonyl]phenyl]-3,8-diazabicyclo[3.2.1]octan-3-yl]methanone], the EC50 is under 1000 nM. The figure for `Cc1c(O)cc(S(=O)(=O)N2CCC(c3ccccc3)CC2)cc1N1[C@@H]2CC[C@H]1CN(C(=O)c1ccc(F)cc1Cl)C2` [compound 124, (2-chloro-4-fluoro-phenyl)-[(1S,5R)-8-[3-hydroxy-2-methyl-5-[(4-phenyl-1-piperidyl)sulfonyl]phenyl]-3,8-diazabicyclo[3.2.1]octan-3-yl]methanone] is under 1000 nM; for `N#Cc1ccc(S(=O)(=O)N2CCC(c3ccccc3)CC2)cc1N1[C@@H]2CC[C@H]1CN(C(=O)c1ccc(F)cc1Cl)C2` [compound 125] it is under 1000 nM; for `COc1ccc(S(=O)(=O)NC(C)(C)C)cc1N1[C@@H]2CC[C@H]1CN(C(=O)c1cc(F)c(F)cc1Cl)C2` [compound 129, N-tert-butyl-3-[(1S,5R)-3-(2-chloro-4,5-difluoro-benzoyl)-3,8-diazabicyclo[3.2.1]octan-8-yl]-4-methoxy-benzenesulfonamide] it is under 1000 nM. `O=C(c1ccc(F)cc1Cl)N1C[C@H]2CC[C@@H](C1)N2c1cc(S(=O)(=O)N2CCC(F)CC2)cc2c1OCC2` [compound 130, (2-chloro-4-fluoro-phenyl)-[(1S,5R)-8-[5-[(4-fluoro-1-piperidyl)sulfonyl]-2,3-dihydrobenzofuran-7-yl]-3,8-diazabicyclo[3.2.1]octan-3-yl]methanone] returned an EC50 of under 1000 nM.

For `CC1(C)COCCN1S(=O)(=O)c1cc(Cl)c(O)c(N2[C@@H]3CC[C@H]2CN(C(=O)c2ccc(F)cc2Cl)C3)c1` [compound 131, [(1S,5R)-8-[3-chloro-5-(3,3-dimethylmorpholin-4-yl)sulfonyl-2-hydroxy-phenyl]-3,8-diazabicyclo[3.2.1]octan-3-yl]-(2-chloro-4-fluoro-phenyl)methanone], the EC50 is under 1000 nM. In turn, `Cc1c(Cl)cc(S(=O)(=O)N(C)C(C)(C)C)cc1N1[C@@H]2CC[C@H]1CN(C(=O)c1ccc(F)cc1Cl)C2` [compound 132, N-tert-butyl-3-chloro-5-[(1S,5R)-3-(2-chloro-4-fluoro-benzoyl)-3,8-diazabicyclo[3.2.1]octan-8-yl]-N,4-dimethyl-benzenesulfonamide] came in with a half-maximal effective concentration (EC50) of under 1000 nM. The value for `CN(C(C)(C)C)S(=O)(=O)c1cc(Cl)c(Cl)c(N2[C@@H]3CC[C@H]2CN(C(=O)c2ccc(F)cc2Cl)C3)c1` [compound 133, N-tert-butyl-3,4-dichloro-5-[(1S,5R)-3-(2-chloro-4-fluoro-benzoyl)-3,8-diazabicyclo[3.2.1]octan-8-yl]-N-methyl-benzenesulfonamide] was under 1000 nM; that for `CN(C(C)(C)C)S(=O)(=O)c1cc(Cl)c(OCCO)c(N2[C@@H]3CC[C@H]2CN(C(=O)c2ccc(F)cc2Cl)C3)c1` [compound 134] was under 1000 nM. `COCCOc1c(Cl)cc(S(=O)(=O)N(C)C(C)(C)C)cc1N1[C@@H]2CC[C@H]1CN(C(=O)c1ccc(F)cc1Cl)C2` [compound 135, N-tert-butyl-3-chloro-5-[(1S,5R)-3-(2-chloro-4-fluoro-benzoyl)-3,8-diazabicyclo[3.2.1]octan-8-yl]-4-(2-methoxyethoxy)-N-methyl-benzenesulfonamide] had an EC50 of under 1000 nM. The value for `CN(C(C)(C)C)S(=O)(=O)c1cc(Cl)c(OCc2ccccc2)c(N2[C@@H]3CC[C@H]2CN(C(=O)c2ccc(F)cc2Cl)C3)c1` [compound 136, 4-benzyloxy-N-tert-butyl-3-chloro-5-[(1S,5R)-3-(2-chloro-4-fluoro-benzoyl)-3,8-diazabicyclo[3.2.1]octan-8-yl]-N-methyl-benzenesulfonamide] was under 1000 nM; that for `CN(C(C)(C)C)S(=O)(=O)c1cc(Cl)c(OCc2cccnc2)c(N2[C@@H]3CC[C@H]2CN(C(=O)c2ccc(F)cc2Cl)C3)c1` [compound 137] was under 1000 nM; that for `CN(C(C)(C)C)S(=O)(=O)c1cc(Cl)c(OCc2ccncc2)c(N2[C@@H]3CC[C@H]2CN(C(=O)c2ccc(F)cc2Cl)C3)c1` [compound 138, N-tert-butyl-3-chloro-5-[(1S,5R)-3-(2-chloro-4-fluoro-benzoyl)-3,8-diazabicyclo[3.2.1]octan-8-yl]-N-methyl-4-(4-pyridylmethoxy) benzenesulfonamide] was under 1000 nM.

In the case of `CC(C)(C)NS(=O)(=O)c1cc(Cl)c(O)c(N2[C@@H]3CC[C@H]2CN(C(=O)c2ccc(F)cc2Cl)C3)c1F` [compound 139, N-tert-butyl-5-chloro-3-[(1S,5R)-3-(2-chloro-4-fluoro-benzoyl)-3,8-diazabicyclo[3.2.1]octan-8-yl]-2-fluoro-4-hydroxy-benzenesulfonamide], the EC50 is under 1000 nM.
